Assay results taken from patent publication US20200367543A1, “SWEETENER AND FLAVOR COMPOSITIONS, METHODS OF MAKING AND METHODS OF USE THEREOF” (EPC Natural Products Co., Ltd., priority 2018, published 2020).
Where two headings read alike, the source gives them in different places.

Legend:
[1] = Assay to test reducing power, active iron-III reduction (Ex. 64); conditions: 10 mM, 100° C., 0-5.0 h, diluted 1:10
[2] = DPPH radical-scavenging activity (Ex. 65); conditions: 10 mM, 100° C., 0-5.0 h, diluted 1:10
Method: 1 mg 1,1-Diphenyl-2-picrylhydrazyl radical (DPPH)/ml ethanol, dilution to assay concentration were prepared in ethanol (40 μg/mL); Calibration samples were prepared with Ascorbic acid in a concentration of 0-10 μg/mL; as a negative control sample, water was used.
Samples in aqueous solution were used as such or diluted with water.
A 0.1 ml sample (or calibration standard) was mixed with 3.9 ml solution of DPPH
([…]) and reacted while protected from light at room temperature for 30 min. Absorbance was determined at 517 nm against ethanol.
10 mM of amino acid and/or 10 mM sugar were dissolved in 10 ml 0.1 mM KH2PO4-buffer, pH=7.8.
The samples were kept at 100° C. in sealed glass vials (Pyrex 15 ml with screw caps) for 0 (before reaction), 2.5 or 5.0 hours. Thereafter the samples were transferred to an ice water bath and cooled down to room temperature. These samples were diluted 1:10 and used for the test assay for anti-oxidant potential.

[3] = compared to sucrose; cited from earlier work
[4] = Sensory evaluation of GSGs and SGs, thaumatin, NHDC and combinations (Ex. 255); conditions: combinations of EPCalin and NHDC dissolved in water
Method: 4.5 ppm Thaumatin (equivalent to 10 ppm EPCalin) was dissolved in water. Increasing amounts of NHDC (1-5 ppm) were added to the solution and the sensory properties were evaluated.
50 ppm (GSGs and SGs) were dissolved in water. Increasing amounts of NHDC (1-5 ppm) were added to the solution and the sensory properties were evaluated.
50 ppm (GSGs and SGs) and 4.5 ppm Thaumatin (equivalent to 10 ppm EPCalin) were dissolved in water. Increasing amounts of NHDC (1-5 ppm) were added to the solution and the sensory properties were evaluated.

[5] = Kinetics of reaction in dependence of pH-conditions (degradation of Phe and Reb-A, Gluc, Xyl, Suc) by HPLC/MS
Method: Quantitative evaluation was performed using external standardization.
Kinetics of Reaction in Dependence of pH-Conditions

[6] = cited from earlier work; for natural sweetness, times of that of sugar: constituents of monk fruit juice or extract; for Sweetness by weight: compared to sucrose; for times sweeter than sucrose: sweetness depends on the tested concentration compared with sucrose

C=C1C[C@@]23CC[C@H]4[C@@](C)(CCC[C@@]4(C)C(=O)O[C@@H]4O[C@H](CO)[C@@H](O)[C@H](O)[C@H]4O)[C@@H]2CC[C@]1(O[C@@H]1O[C@H](CO)[C@@H](O)[C@H](O[C@@H]2O[C@H](CO)[C@@H](O)[C@H](O)[C@H]2O)[C@H]1O[C@@H]1O[C@H](CO)[C@@H](O)[C@H](O)[C@H]1O)C3 [Reb-A, Rebaudioside A]
anti-oxidant properties (active iron-III reduction) [1]: substantial anti-oxidant properties | anti-oxidant properties (radical scavenging) [2]: substantial anti-oxidant properties

OC[C@@H](O)[C@@H](O[C@H]1O[C@H](CO)[C@@H](O)[C@H](O)[C@H]1O)[C@H](O)[C@@H](O)CO [Maltitol]
Energy density [3]: 0.525

COc1ccc(CCC(=O)c2c(O)cc(O[C@@H]3O[C@H](CO)[C@@H](O)[C@H](O)[C@H]3O[C@@H]3O[C@@H](C)[C@H](O)[C@@H](O)[C@H]3O)cc2O)cc1O [10 ppm NHDC]
Sensory evaluation [4]: Sweet, steep onset of sweetness, no lingering

OC[C@@H](O)[C@@H](O)[C@H](O)[C@@H](O)CO [Sorbitol]
Energy density [3]: 0.65

O=C(O)[C@H](Cc1ccccc1)NCC(=O)[C@@H](O)[C@H](O)[C@H](O)CO [MRI (Phe-Glu)]
% formation from degraded Phe ([5]; reaction of Phe and Suc, pH = 5.5, n.d. = not detected): <0.10% | % formation from degraded Phe ([5]; reaction of Phe and Suc, pH = 7.0, n.d. = not detected): 0.54% | % formation from degraded Phe ([5]; reaction of Phe and Suc, pH = 8.5, n.d. = not detected): 0.84%

OC[C@@H](O)[C@@H](O)[C@H](O)[C@H](O)CO [Mannitol]
Energy density [3]: 0.4 | natural sweetness, times of that of sugar [6]: 0.55-0.65 times

Isomalto-oligosaccharide
Sweetness by weight [6]: 0.5

O=C(CO)[C@@H](O)[C@@H](O)[C@H](O)CO [Tagatose]
Energy density [3]: 0.38

OC[C@@H](O)[C@@H](O[C@@H]1O[C@H](CO)[C@H](O)[C@H](O)[C@H]1O)[C@H](O)[C@@H](O)CO [Lactitol]
Energy density [3]: 0.5

OC[C@@H](O)[C@@H](O)CO [Erythritol]
Energy density [3]: 0.05

C=C1CC23CC[C@H]4[C@@](C)(CCC[C@@]4(C)C(=O)OC4O[C@H](C(=O)N[C@H](Cc5ccccc5)C(=O)O)[C@@H](O)[C@H](O)[C@H]4O)[C@@H]2CC(O[C@@H]2O[C@H](CO)[C@@H](O)C(O[C@@H]4O[C@H](CO)[C@@H](O)[C@H](O)[C@H]4O)[C@H]2O[C@@H]2O[C@H](CO)[C@@H](O)[C@H](O)[C@H]2O)C1C3 (stereo partly drawn) [MRI (Phe-Reb-A)]
% formation from degraded Phe ([5]; reaction of Phe and Reb-A, pH = 5.5, MRI (Phe-Reb-A): all possible isomers included): 10.4% | % formation from degraded Phe ([5]; reaction of Phe and Reb-A, pH = 7.0, MRI (Phe-Reb-A): all possible isomers included): 11.3% | % formation from degraded Phe ([5]; reaction of Phe and Reb-A, pH = 8.5, MRI (Phe-Reb-A): all possible isomers included): 14.7%

C[C@H](CC[C@@H](O[C@@H]1O[C@H](CO)[C@@H](O)[C@H](O)[C@H]1O[C@@H]1O[C@H](CO)[C@@H](O)[C@H](O)[C@H]1O)C(C)(C)O)[C@H]1CC[C@@]2(C)[C@H]3CC=C4[C@@H](CC[C@H](O[C@@H]5O[C@H](CO[C@@H]6O[C@H](CO)[C@@H](O)[C@H](O)[C@H]6O)[C@@H](O)[C@H](O)[C@H]5O)C4(C)C)[C@]3(C)[C@H](O)C[C@]12C [mogroside IV]
natural sweetness, times of that of sugar [6]: 126 times

O=S(=O)([O-])NC1CCCCC1.[Na+] [sodium cyclamate]
times sweeter than sucrose [6]: about 30 times

C[C@H](CC[C@@H](O[C@@H]1O[C@H](CO[C@@H]2O[C@H](CO)[C@@H](O)[C@H](O)[C@H]2O)[C@@H](O)[C@H](O)[C@H]1O[C@@H]1O[C@H](CO)[C@@H](O)[C@H](O)[C@H]1O)C(C)(C)O)[C@H]1CC[C@@]2(C)[C@@H]3CC=C4[C@@H](CC[C@H](O[C@@H]5O[C@H](CO[C@@H]6O[C@H](CO)[C@@H](O)[C@H](O)[C@H]6O)[C@@H](O)[C@H](O)[C@H]5O)C4(C)C)[C@]3(C)[C@H](O)C[C@]12C [mogroside V]
natural sweetness, times of that of sugar [6]: 256-344 times

OC[C@H]1O[C@H](O[C@]2(CCl)O[C@H](CCl)[C@@H](O)[C@@H]2O)[C@H](O)[C@@H](O)[C@H]1Cl [sucralose]
times sweeter than sucrose [6]: about 600 times

COc1ccc(CCC(=O)c2c(O)cc(O[C@@H]3O[C@H](CO)[C@@H](O)[C@H](O)[C@H]3O[C@@H]3O[C@@H](C)[C@H](O)[C@@H](O)[C@H]3O)cc2O)cc1O [NHDC, Neohesperidin dihydrochalcone]
times sweeter than sugar ([6]; at threshold concentrations): 1500-1800 times | times sweeter than sugar ([6]; weight-for-weight): about 340 times

rebaudioside B [Reb B]
% formation from degraded Reb-A ([5]; reaction of Phe and Reb-A, pH = 5.5): 23.1% | % formation from degraded Reb-A ([5]; reaction of Phe and Reb-A, pH = 7.0): 22.7% | % formation from degraded Reb-A ([5]; reaction of Phe and Reb-A, pH = 8.5): 19.1%

CC1(C)[C@@H](O[C@H]2O[C@H](C(=O)O)[C@@H](O)[C@H](O)[C@H]2O[C@@H]2O[C@H](C(=O)O)[C@@H](O)[C@H](O)[C@H]2O)CC[C@]2(C)[C@H]3C(=O)C=C4[C@@H]5C[C@@](C)(C(=O)O)CC[C@]5(C)CC[C@@]4(C)[C@]3(C)CC[C@@H]12 [Glycyrrhizin]
times sweeter than sucrose [6]: 30 to 50 times

OCC(O)CO [Glycerol]
Energy density [3]: 1.075

Fructo-oligosaccharide
Sweetness by weight [6]: 0.3-0.5

Isomalt
Energy density [3]: 0.5
